Reference: PubChem BioAssay (NCI)
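The concentration for 50% growth inhibition is given as GI50. TGI marks complete inhibition of growth.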

Key:
Assay in all cases: DTP human tumour cell line panel, 384-well format
[1] = tested on: NCI-H460 NSCLC
[2] = tested on: U251 glioblastoma
[3] = tested on: SK-MEL-5 melanoma
[4] = tested on: NCI-H226 lung
[5] = tested on: OVCAR-3 ovarian
[6] = tested on: CAKI-1 renal
[7] = tested on: NCI/ADR-RES ovarian
[8] = tested on: NCI-H522 lung
[9] = tested on: UACC-62 melanoma
[10] = tested on: M14 melanoma
[11] = tested on: K-562 leukemia
[12] = tested on: MDA-MB-435 melanoma
[13] = tested on: MDA-MB-231 breast
[14] = tested on: LOX IMVI melanoma
[15] = tested on: RXF 393 renal
[16] = tested on: MOLT-4 leukemia
[17] = tested on: IGROV1 ovarian
[18] = tested on: SR leukemia
[19] = tested on: T-47D breast
[20] = tested on: HOP-92 NSCLC
[21] = tested on: CCRF-CEM leukemia
[22] = tested on: HCT-15 colon
[23] = tested on: HL-60(TB) leukemia
[24] = tested on: SK-MEL-28 melanoma
[25] = tested on: SK-MEL-2 melanoma
[26] = tested on: NCI-H23 lung
[27] = tested on: SF-295 CNS
[28] = tested on: SF-539 CNS
[29] = tested on: HT29 colon
[30] = tested on: PC-3 prostate
[31] = tested on: TK-10 renal
[32] = tested on: SN12C renal
[33] = tested on: OVCAR-4 ovarian
[34] = tested on: SW-620 colon
[35] = tested on: SF-268 CNS
[36] = tested on: HCT-116 colon
[37] = tested on: HOP-62 NSCLC
[38] = tested on: HCC-2998 colon
[39] = tested on: RPMI-8226 leukemia
[40] = tested on: MALME-3M melanoma
[41] = tested on: A498 renal
[42] = tested on: DU-145 prostate
[43] = tested on: 786-0 renal
[44] = tested on: UO-31 renal
[45] = tested on: A549 NSCLC
[46] = tested on: SK-OV-3 ovarian
[47] = tested on: UACC-257 melanoma
[48] = tested on: BT-549 breast
[49] = tested on: OVCAR-8 ovarian
[50] = tested on: SNB-19 CNS
[51] = tested on: MDA-MB-468 breast
[52] = tested on: OVCAR-5 ovarian
[53] = tested on: COLO 205 colon
[54] = tested on: KM12 colon
[55] = tested on: NCI-H322M lung
[56] = tested on: MCF7 breast
[57] = tested on: ACHN renal

COc1ccc(-c2ccc3ncc4c(c3c2)n(-c2ccc(N3CCNCC3)c(C(F)(F)F)c2)c(=O)n4C)cn1
GI50 [1]: < 0.01 µM | TGI [1]: 0.0833 µM | GI50 [2]: < 0.01 µM | TGI [2]: 0.134 µM | GI50 [3]: < 0.01 µM | TGI [3]: 0.0138 µM | GI50 [4]: < 0.01 µM | TGI [4]: 0.0325 µM | GI50 [5]: < 0.01 µM | TGI [5]: 0.096 µM | GI50 [6]: < 0.01 µM | TGI [6]: 0.0149 µM | GI50 [7]: 0.107 µM | TGI [7]: 0.226 µM | GI50 [8]: < 0.01 µM | TGI [8]: 0.0509 µM | GI50 [9]: < 0.01 µM | TGI [9]: 0.0283 µM | GI50 [10]: < 0.01 µM | TGI [10]: 0.0649 µM | GI50 [11]: < 0.01 µM | TGI [11]: 0.124 µM | GI50 [12]: < 0.01 µM | TGI [12]: 0.034 µM | GI50 [13]: < 0.01 µM | TGI [13]: 0.158 µM | GI50 [14]: < 0.01 µM | TGI [14]: 0.049 µM | GI50 [15]: < 0.01 µM | TGI [15]: 0.0193 µM | GI50 [16]: < 0.01 µM | TGI [16]: < 0.01 µM | GI50 [17]: < 0.01 µM | TGI [17]: < 0.01 µM | GI50 [18]: < 0.01 µM | TGI [18]: < 0.01 µM | GI50 [19]: < 0.01 µM | TGI [19]: < 0.01 µM | GI50 [20]: < 0.01 µM | TGI [20]: 0.0191 µM | GI50 [21]: < 0.01 µM | TGI [21]: 0.0136 µM | GI50 [22]: < 0.01 µM | TGI [22]: 0.129 µM | GI50 [23]: 0.0155 µM | TGI [23]: 0.111 µM | GI50 [24]: < 0.01 µM | TGI [24]: 0.042 µM | GI50 [25]: < 0.01 µM | TGI [25]: 0.0365 µM | GI50 [26]: 0.0114 µM | TGI [26]: 0.082 µM | GI50 [27]: < 0.01 µM | TGI [27]: 0.0105 µM | GI50 [28]: < 0.01 µM | TGI [28]: 0.0263 µM | GI50 [29]: < 0.01 µM | TGI [29]: 0.135 µM | GI50 [30]: < 0.01 µM | TGI [30]: 0.106 µM | GI50 [31]: < 0.01 µM | TGI [31]: 0.0506 µM | GI50 [32]: < 0.01 µM | TGI [32]: 0.154 µM | GI50 [33]: < 0.01 µM | TGI [33]: < 0.01 µM | GI50 [34]: < 0.01 µM | TGI [34]: 0.122 µM | GI50 [35]: < 0.01 µM | TGI [35]: 0.131 µM | GI50 [36]: < 0.01 µM | TGI [36]: 0.13 µM | GI50 [37]: < 0.01 µM | TGI [37]: 0.0216 µM | GI50 [38]: < 0.01 µM | TGI [38]: 0.103 µM | GI50 [39]: < 0.01 µM | TGI [39]: < 0.01 µM | GI50 [40]: < 0.01 µM | TGI [40]: < 0.01 µM | GI50 [41]: < 0.01 µM | TGI [41]: < 0.01 µM | GI50 [42]: < 0.01 µM | TGI [42]: 0.128 µM | GI50 [43]: < 0.01 µM | TGI [43]: 0.151 µM | GI50 [44]: < 0.01 µM | TGI [44]: 0.0167 µM | GI50 [45]: < 0.01 µM | TGI [45]: 0.0254 µM | GI50 [46]: < 0.01 µM | TGI [46]: < 0.01 µM | GI50 [47]: 0.0117 µM | TGI [47]: 0.0515 µM | GI50 [48]: < 0.01 µM | TGI [48]: 0.0172 µM | GI50 [49]: < 0.01 µM | TGI [49]: 0.124 µM | GI50 [50]: < 0.01 µM | TGI [50]: 0.192 µM | GI50 [51]: < 0.01 µM | TGI [51]: < 0.01 µM | GI50 [52]: < 0.01 µM | TGI [52]: 0.105 µM | GI50 [53]: < 0.01 µM | TGI [53]: 0.0217 µM | GI50 [54]: < 0.01 µM | TGI [54]: 0.141 µM | GI50 [55]: < 0.01 µM | TGI [55]: 0.109 µM | GI50 [56]: < 0.01 µM | TGI [56]: 0.12 µM | GI50 [57]: < 0.01 µM | TGI [57]: 0.0438 µM
